In paper PMC2360155, “Novel retinoic acid metabolism blocking agents have potent inhibitory activities on human breast cancer cells and tumour growth” (British Journal of Cancer, 2007):
“Also recorded” adds a separate entry of the source.

Columns and labels:
[1] = test system: cyclin D1; experiment: Western blotting for cyclin D1 in T47D cells; format: cell-based, human; conditions: 1, 5 and 10 μM, 6 days
Protocol: (§1) At the end of the treatment, cells were scrapped and collected by washing with ice-cold PBS in a centrifuge tube. Cells were centrifuged at 2500 r.p.m. for 10 min, the pellet was again washed with ice-cold PBS and centrifuged. The cell pellet was then suspended in chilled cell lysis buffer (0.1 M Tris–HCl, 0.5% Triton X-100, protease inhibitor cocktail) and sonicated on ice for 10–15 s. The homogenate was kept on ice for 30 min and then centrifuged at 13 000 r.p.m. for 30 min. The supernatant was used as cell lysate. The cell lysates were stored at −80°C. Protein concentration of the cell lysates was determined using Bio-Rad protein assay reagents.
(§2) Protein lysates from MCF-7 and T47D cells were subjected to sodium dodecyl sulphate–polyacrylamide gel electrophoresis (SDS–PAGE) and immunoblotted for different proteins. […] Immunoreactive bands were visualised using the enhanced chemiluminescence detection reagents and analysis system (Amersham Bioscences) according to the manufacturer's instructions and quantified by densitometry using ImageQuant software version 5.
(§3) Figure 5 Western blotting of whole-cell lysates of treated MCF-7 and T47D cells for the expression of Cyclin D1. […] Numbers below the blot show fold decrease in expression of the protein as analysed by ImageQuant densitometry analysis. […]

[2] = test system: MCF-7Ca tumour xenografts; experiment: In vivo antitumour study, MCF-7Ca tumour xenografts; set-up: species or system ovariectomised female athymic nude mice; conditions: for Prevention of formation of MCF-7Ca tumours (in words): 20 mg kg^−1 day^−1 from the day after inoculation
Protocol: The third in vivo antitumour experiment was conducted with MCF-7Ca tumours. MCF-7Ca were provided by Dr S Chen (City of Hope, Duarte, CA, USA). The tumour xenografts were grown in mice as described previously ([Yue et al, 1994]). Subconfluent cells were scraped into Delbecco's phosphate-buffered saline, collected by centrifugation and resuspended in Matrigel (10 mg ml^−1) at 2.5 × 10^7 cells ml^−1. Each mouse received s.c. inoculations in two sites per flank with 100 μl of cell suspension. Mice in the tumour formation prevention group (n=5) were than injected daily with androstenedione (100 μg day^−1) plus VN/14-1 (20 mg kg^−1 day^−1) in the vehicle for the duration of the experiment. The rest of the mice were injected daily with 100 μg day^−1 of androstenedione. Measurements and treatments began when the tumours reached approximately 300 mm^3, about 6 weeks after cell inoculation. Mice were assigned to groups for treatment so that there was no statistically significant difference in tumour volumes among the groups at the beginning of the treatment. Tumours were measured and volumes calculated as described above. Mice were than injected s.c. daily with the indicated agents: 100 μg per mouse per day (5 × weekly) plus 10 μg per mouse per day (5 × weekly) of letrozole or 200 μg per mouse per day (5 × weekly) of anastrozole and 20 mg kg^−1 day^−1 (5 × weekly) of VN/14-1. The doses of letrozole, anastrozole, androstendione and VN/14-1 used are as determined previously ([Long et al, 2002], [2004]; [Patel et al, 2004]). The mice were treated for the indicated times, after which they were killed by decapitation and blood collected. Tumours and uteri were excised, cleaned, weighed and stored at −80°C for additional analyses.
Figure 10 Effects of VN/14-1 on the formation of MCF-7Ca tumours and effects of VN/14-1, anastrozole and letrozole on the growth of MCF-7Ca xenografts in ovariectomised female athymic nude mice. Mice were inoculated with MCF-7Ca cells as described in Materials and Methods. Beginning on the following day, androstendione (100 μg per mouse per day) was supplemented by s.c. injection for the duration of the experiment. For the tumour formation prevention group (n=5), VN/14-1 (20 mg kg^−1 day^−1) treatment began from the day after inoculation. For the other groups (VN/14-1, anastrazole and letrozole), treatment began after the tumour had reached approximately 300 mm^3 following procedures described in Materials and Methods.

[3] = test system: cyclin D1; experiment: Western blotting for cyclin D1 in MCF-7 cells; format: cell-based, human; conditions: 6 days (4HPR 4 days)
Protocol: as §1, §2, §3

Compound	Expression of cyclin D1 (in words) [1]	Prevention of formation of MCF-7Ca tumours (in words) [2]	Prevention of formation of MCF-7Ca tumours (in words) ([2]; listed as VN14-1)	Inhibition of growth of established MCF-7Ca tumours (in words) ([2]; 20 mg kg^−1 day^−1 s.c. (5 × weekly), androstenedione supplemented)	Uterine wet weight ([2]; VN/14-1 treatment, data not shown)	Decrease of cyclin D1 protein expression compared with untreated control [3]
CC1=C(/C=C/C(C)=C/C=C/C(C)=C/C(=O)O)C(C)(C)CCC1n1ccnc1 (stereo not drawn) [VN/14-1]	significantly downregulated	very effective in preventing the formation of MCF-7Ca tumours	efficacious in preventing the formation of MCF-7Ca tumours	as effective as the clinically used aromatase inhibitors, anastrozole and letrozole; also recorded: as effective as either anastrozole or letrozole	significant reduction in uterine wet weight	–
CC1=C(/C=C/C(C)=C/C=C/C(C)=C/C(=O)O)C(C)(C)CCC1 [ATRA, all-trans-retinoic acid, reference compound]	–	–	–	–	–	> 80%
